Earlier results, collected in US20230398240A1, “THERAPEUTIC RADIOLABELLED CONJUGATES AND THEIR USE IN THERAPY” (priority 2020, published 2023).

Key:
[1] = test system: quiescent endothelial cells; settings: in vitro

Compound: N[C@@H](CCC(=O)N[C@@H](CSCC(=O)Nc1ccc([As](O)O)cc1)C(=O)NCC(=O)O)C(=O)O [GSAO, 4-(N—(S-glutathionylacetyl)amino)phenylarsenous acid]
- effect on angiogenesis in vivo (angiogenesis): inhibits angiogenesis in vivo
- toxicity to proliferating cells (proliferating cells): toxic to proliferating cells
- toxicity to quiescent endothelial cells [1]: nontoxic to quiescent endothelial cells
